Assay results as given in patent US20260218109A1, “CULTURING DEVICE AND METHOD” (METHANE […] LIMITED, priority 2023, published 2026).

Tested on: culture from a ruminant animal foregut
Assay: administration of feed material and methanogenesis inhibitor to culturing device liquor, recording CH4 and dH2 (FIG. 11)
Format: cell-based, sheep
Conditions: final CHBr3 concentration 6 μM in 1.5 L liquor
Source text: FIG. 11 comprises a graph 1101 of the measured temperature on the upper y-axis 1102 shown in degrees Celsius (° C.), the measured CH4 on the middle y-axis 1103 in percentage (%), and the measured dH2 on the lower y-axis 1104 in milli Volts (mV) versus time on the x-axis 1105 measured in hours.
The plot 1106 of CH4 is the output of the SGX methane sensor as described in FIG. 8 800 and the accompanying text.
The plot 1006 of dH2 is the voltage generated by a hydrogen fuel cell as described in FIG. 7 700 and the accompanying text.
The culturing device vessel was inoculated with a culture sourced from a freshly slaughtered grass-fed ewe hogget sheep of mixed breed. After resection of the reticulorumen organ, 2.5 L the rumen content was determined to have a pH Of 6.0 and then transferred to a 5 L jug and mixed with 2.5 L of rainwater. A 0.7 L aliquot of this mixture was used to inoculate the vessel of a culturing device containing 0.8 L of rainwater pre-heated to the culturing device setpoint temperature of about 39° C.
After inoculation, the culturing device was prescribed the movement algorithm described in FIG. 10 1000 above.
As described herein, the vessel of the present examples has an internal volume of about 2.0 L and is typically operated with 1.5 L of liquor and 0.5 L of headspace. […]

Compound: BrC(Br)Br [CHBr3]
- measured CH4 (plot 1106), effect of added CHBr3 (given with daily feed on, 39° C.): decreasing CH4
- measured dH2 (plot 1107, hydrogen fuel cell voltage) (then ceased, dH2 anticipated to increase when methanogenesis is reduced): mirrored in the plot 1107 of the dH2
